The results in this text go back to patent publication US12415819B2, “Cu- and Ni-catalyzed decarboxylative borylation reactions” (The Scripps Research Institute, priority 2017, dated 2025).

Converted amounts (≈) assume the structure as drawn.

What all share (assay): Antibiotic susceptibility, broth microdilution
Holding throughout (type): cell-based

In test [1] the test system is Staphylococcus aureus (methicillin resistant, ATCC 43300). Conditions: MRSA; growth observed at 20 h; unit assumed. Here is the method:
(§1) Antibiotic susceptibilities were determined using the Clinical and Laboratory Standards Institute broth microdilution method (63). Briefly, antibiotics were prepared as 2-fold dilutions in 96-well plates containing cation-adjusted Mueller-Hinton broth (S. aureus strains) or brain-heart infusion broth (Enterococcus strains). Stock solutions of antibiotics were made in dimethyl sulfoxide (DMSO). […]

In test [2] the test system is Enterococcus faecium (Van A, ATCC BAA-2317). Conditions: growth observed at 20 h; unit assumed. Here is the method:
as §1

Test [3] relates to Enterococcus faecalis (Van B, ATCC 51299). The settings on record: growth observed at 20 h, unit assumed. Here is the method: as §1
Test [4] deals with Staphylococcus aureus (ATCC 25923). The settings on record: growth observed at 20 h; unit assumed. Here is the method: as §1
The subject of test [5] is Enterococcus faecalis (VanA, BM4166). Conditions: growth observed at 20 h, unit assumed. As for the experimental part: as §1

Turning to `CN[C@@H](CC(C)C)C(=O)N[C@H]1C(=O)N[C@@H](CC(N)=O)C(=O)N[C@H]2CN[C@H]3C(=O)N[C@H](C(=O)N[C@@H](C(=O)O)c4cc(OC)cc(OC)c4-c4cc3ccc4OC)[C@H](O)c3ccc(c(Cl)c3)Oc3cc2cc(c3OC)Oc2ccc(cc2Cl)[C@H]1O` (atropisomer, axis not shown) [Compound 43], the MIC (in general, the least concentration at which growth counts as inhibited) in test [1] was 2 µg/mL (≈ 1.69 µM); in test [2], > 64 µg/mL; in test [3], 8 µg/mL (≈ 6.74 µM); in test [4], 2 µg/mL (≈ 1.69 µM); in test [5], > 64 µg/mL.
Consider `CN[C@H](CC(C)C)C(=O)N[C@H]1C(=O)N[C@@H](CC(N)=O)C(=O)N[C@H]2C(=O)N[C@H]3C(=O)N[C@H](C(=O)N[C@H](C(=O)O)c4cc(O)cc(O)c4-c4cc3ccc4O)[C@H](O)c3ccc(c(Cl)c3)Oc3cc2cc(c3O)Oc2ccc(cc2Cl)[C@H]1O` [vancomycin aglycon], for which the minimum inhibitory concentration (MIC) in test [1] was 1 µg/mL (≈ 0.874 µM); in test [2], > 64 µg/mL; in test [3], 32 µg/mL (≈ 28 µM); in test [4], 1 µg/mL (≈ 0.874 µM); in test [5] it was > 64 µg/mL.
In the case of `CN[C@H](CC(C)C)C(=O)N[C@H]1C(=O)N[C@@H](CC(N)=O)C(=O)N[C@H]2C(=O)N[C@H]3C(=O)N[C@H](C(=O)N[C@H](C(=O)O)c4cc(O)cc(O)c4-c4cc3ccc4O)[C@H](O)c3ccc(c(Cl)c3)Oc3cc2cc(c3O[C@@H]2O[C@H](CO)[C@@H](O)[C@H](O)[C@H]2O[C@H]2C[C@](C)(N)[C@H](O)[C@H](C)O2)Oc2ccc(cc2Cl)[C@H]1O` [vancomycin], the minimum inhibitory concentration (MIC) in test [1] was 0.5 µg/mL (≈ 0.345 µM); in test [2] it was > 64 µg/mL; in test [3], 16 µg/mL (≈ 11 µM); in test [4] it was 0.5 µg/mL (≈ 0.345 µM); in test [5], > 64 µg/mL.
